Measured values from ChEMBL document CHEMBL1201862, “PubChem BioAssay data set” (2004).
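A five-concentration, 48-hour dose response in 96-well plates underlies each endpoint, interpolated linearly between surrounding concentrations. Here, GI50 denotes the concentration required for 50% inhibition of growth.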 Activity calls are given as the source filed them. Cut-off read from the data, not from the text of the source: active = GI50 up to about 1.1 µM and inactive = higher.

Columns and labels:
Experiment in all cases: growth of human tumour cells (NCI), 48 h
786-0 = test system: 786-0
A498 = test system: A498
A549 = test system: A549
ACHN = test system: ACHN
BT-549 = test system: BT-549
CAKI-1 = test system: CAKI-1
CCRF-CEM = test system: CCRF-CEM
COLO 205 = test system: COLO 205
DU-145 = test system: DU-145
EKVX = test system: EKVX
HCT-116 = test system: HCT-116
HCT-15 = test system: HCT-15
HL-60 = test system: HL-60
HOP-62 = test system: HOP-62
HOP-92 = test system: HOP-92
HT-29 = test system: HT-29
Hs-578T = test system: Hs-578T
IGROV-1 = test system: IGROV-1
K562 = test system: K562
KM12 = test system: KM12
LOX IMVI = test system: LOX IMVI
M14 = test system: M14
MCF7 = test system: MCF7
MDA-MB-231 = test system: MDA-MB-231
MDA-MB-435 = test system: MDA-MB-435
MDA-N = test system: MDA-N
MOLT-4 = test system: MOLT-4
Malme-3M = test system: Malme-3M
NCI-H226 = test system: NCI-H226
NCI-H23 = test system: NCI-H23
NCI-H460 = test system: NCI-H460
NCI-H522 = test system: NCI-H522
NCI/ADR-RES = test system: NCI/ADR-RES
OVCAR-3 = test system: OVCAR-3
OVCAR-4 = test system: OVCAR-4
OVCAR-5 = test system: OVCAR-5
OVCAR-8 = test system: OVCAR-8
PC-3 = test system: PC-3
RPMI-8226 = test system: RPMI-8226
RXF 393 = test system: RXF 393
SF-268 = test system: SF-268
SF-295 = test system: SF-295
SF-539 = test system: SF-539
SK-MEL-28 = test system: SK-MEL-28
SK-MEL-2 = test system: SK-MEL-2
SK-MEL-5 = test system: SK-MEL-5
SK-OV-3 = test system: SK-OV-3
SN12C = test system: SN12C
SNB-19 = test system: SNB-19
SNB-75 = test system: SNB-75
SR = test system: SR
SW-620 = test system: SW-620
T47D = test system: T47D
TK-10 = test system: TK-10
U-251 = test system: U-251
UACC-257 = test system: UACC-257
UACC-62 = test system: UACC-62
UO-31 = test system: UO-31

In the case of `COc1ccc(C2NC(=O)Nc3c2c(=O)oc2c3ccc3ccccc32)cc1` (stereo not drawn), the GI50 (786-0) is reported as 67 µM (inactive), the GI50 (A498) is reported as 31.4 µM (inactive) and the GI50 (A549) is reported as 48.4 µM (inactive). For the same compound, the GI50 (ACHN) was 51.6 µM (inactive), the GI50 (BT-549) was 41.6 µM (inactive) and the GI50 (CAKI-1) was 52.8 µM (inactive). For the same compound, the GI50 (CCRF-CEM) was 37 µM (inactive), the GI50 (COLO 205) was > 100 µM (inactive) and the GI50 (DU-145) was > 100 µM (inactive). The GI50 (EKVX) was 23.7 µM (inactive), the GI50 (HCT-116) was 75.9 µM (inactive) and the GI50 (HCT-15) was 46.1 µM. For the same compound, the GI50 (HL-60) was 70.8 µM (inactive), the GI50 (HOP-62) was 61.4 µM (inactive) and the GI50 (HOP-92) was 35.2 µM (inactive). For the same compound, the GI50 (HT-29) was 77.6 µM (inactive), the GI50 (Hs-578T) was 41.4 µM (inactive) and the GI50 (IGROV-1) was 50.4 µM (inactive). The GI50 (K562) was 48.1 µM (inactive), the GI50 (KM12) was 57 µM (inactive) and the GI50 (LOX IMVI) was 74.6 µM (inactive). For the same compound, the GI50 (M14) was 37.6 µM (inactive), the GI50 (MCF7) was 66.2 µM (inactive) and the GI50 (MDA-MB-231) was 54 µM (inactive). For the same compound, the GI50 (MDA-MB-435) was 56.5 µM (inactive), the GI50 (MDA-N) was 59.2 µM (inactive) and the GI50 (MOLT-4) was 62.8 µM (inactive). For the same compound, the GI50 (Malme-3M) was 68.9 µM (inactive), the GI50 (NCI-H226) was 23.4 µM (inactive) and the GI50 (NCI-H23) was 52.6 µM (inactive). For the same compound, the GI50 (NCI-H460) was 50.8 µM (inactive), the GI50 (NCI-H522) was 53.2 µM (inactive) and the GI50 (NCI/ADR-RES) was 69.5 µM (inactive). The GI50 (OVCAR-3) was 92.9 µM (inactive), the GI50 (OVCAR-4) was 48 µM (inactive) and the GI50 (OVCAR-5) was > 100 µM (inactive). The GI50 (OVCAR-8) was 66.8 µM (inactive), the GI50 (PC-3) was 38.2 µM (inactive) and the GI50 (RPMI-8226) was 43.3 µM (inactive). The GI50 (RXF 393) was 42 µM (inactive), the GI50 (SF-268) was 56.4 µM (inactive) and the GI50 (SF-295) was 51.4 µM (inactive). The GI50 (SF-539) was 83 µM (inactive), the GI50 (SK-MEL-28) was 55.5 µM (inactive) and the GI50 (SK-MEL-2) was 26.4 µM (inactive). For the same compound, the GI50 (SK-MEL-5) was 71.6 µM (inactive), the GI50 (SK-OV-3) was > 100 µM (inactive) and the GI50 (SN12C) was 68.7 µM (inactive). The GI50 (SNB-19) was 33.2 µM (inactive), the GI50 (SNB-75) was 22.3 µM (inactive) and the GI50 (SR) was 50 µM (inactive). The GI50 (SW-620) was > 100 µM (inactive), the GI50 (T47D) was 31.1 µM (inactive) and the GI50 (TK-10) was 74.3 µM (inactive). For the same compound, the GI50 (U-251) was 36.7 µM (inactive), the GI50 (UACC-257) was > 100 µM (inactive) and the GI50 (UACC-62) was 29.6 µM (inactive). For the same compound, the GI50 (UO-31) was 52.7 µM (inactive).
